Reference: PubChem BioAssay (NCI)
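Grown in 96-well plates, cells were treated for 48 hours with each compound at five concentrations. Insufficient inhibition: endpoint recorded as highest concentration tested. The concentration for full growth arrest is given as TGI.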

Tests used:
Assay in all cases: DTP human tumour cell line panel, 48 h
MOLT-4 leukemia = tested on: MOLT-4 leukemia
MCF7 breast = tested on: MCF7 breast
UACC-257 melanoma = tested on: UACC-257 melanoma
NCI-H226 lung = tested on: NCI-H226 lung
OVCAR-3 ovarian = tested on: OVCAR-3 ovarian
M14 melanoma = tested on: M14 melanoma
BT-549 breast = tested on: BT-549 breast
T-47D breast = tested on: T-47D breast
MDA-MB-231 breast = tested on: MDA-MB-231 breast
CCRF-CEM leukemia = tested on: CCRF-CEM leukemia
NCI-H460 lung = tested on: NCI-H460 lung
SF-295 CNS = tested on: SF-295 CNS
COLO 205 colon = tested on: COLO 205 colon
NCI/ADR-RES ovarian = tested on: NCI/ADR-RES ovarian
HL-60(TB) leukemia = tested on: HL-60(TB) leukemia
KM12 colon = tested on: KM12 colon
HOP-62 NSCLC = tested on: HOP-62 NSCLC
HCT-116 colon = tested on: HCT-116 colon
HS 578T breast = tested on: HS 578T breast
MALME-3M melanoma = tested on: MALME-3M melanoma
U251 CNS = tested on: U251 CNS
HOP-92 NSCLC = tested on: HOP-92 NSCLC
K-562 leukemia = tested on: K-562 leukemia
OVCAR-5 ovarian = tested on: OVCAR-5 ovarian
A498 renal = tested on: A498 renal
TK-10 renal = tested on: TK-10 renal
MDA-N = tested on: MDA-N
ACHN renal = tested on: ACHN renal
SK-MEL-2 melanoma = tested on: SK-MEL-2 melanoma
OVCAR-4 ovarian = tested on: OVCAR-4 ovarian
SR leukemia = tested on: SR leukemia
SNB-19 CNS = tested on: SNB-19 CNS
SK-MEL-28 melanoma = tested on: SK-MEL-28 melanoma
RXF 393 renal = tested on: RXF 393 renal
HT29 colon = tested on: HT29 colon
EKVX NSCLC = tested on: EKVX NSCLC
NCI-H23 lung = tested on: NCI-H23 lung
SK-OV-3 ovarian = tested on: SK-OV-3 ovarian
SW-620 colon = tested on: SW-620 colon
SK-MEL-5 melanoma = tested on: SK-MEL-5 melanoma
SF-268 CNS = tested on: SF-268 CNS
NCI-H522 lung = tested on: NCI-H522 lung
IGROV1 ovarian = tested on: IGROV1 ovarian
UO-31 renal = tested on: UO-31 renal
UACC-62 melanoma = tested on: UACC-62 melanoma
OVCAR-8 ovarian = tested on: OVCAR-8 ovarian
HCT-15 colon = tested on: HCT-15 colon
SN12C renal = tested on: SN12C renal
A549 NSCLC = tested on: A549 NSCLC
786-0 renal = tested on: 786-0 renal
LOX IMVI melanoma = tested on: LOX IMVI melanoma
MDA-MB-435 = tested on: MDA-MB-435
HCC-2998 colon = tested on: HCC-2998 colon
PC-3 prostate = tested on: PC-3 prostate
DU-145 prostate = tested on: DU-145 prostate
CAKI-1 renal = tested on: CAKI-1 renal
SNB-75 CNS = tested on: SNB-75 CNS
RPMI-8226 leukemia = tested on: RPMI-8226 leukemia

Oc1cccc(-c2cn3cc(Cl)ccc3n2)c1
TGI (MOLT-4 leukemia): > 100 µM
TGI (MCF7 breast): > 100 µM
TGI (UACC-257 melanoma): 77.5 µM
TGI (NCI-H226 lung): > 100 µM
TGI (OVCAR-3 ovarian): > 100 µM
TGI (M14 melanoma): > 100 µM
TGI (BT-549 breast): > 100 µM
TGI (T-47D breast): 48.2 µM
TGI (MDA-MB-231 breast): > 100 µM
TGI (CCRF-CEM leukemia): 81.5 µM
TGI (NCI-H460 lung): > 100 µM
TGI (SF-295 CNS): > 100 µM
TGI (COLO 205 colon): > 100 µM
TGI (NCI/ADR-RES ovarian): > 100 µM
TGI (HL-60(TB) leukemia): 56.2 µM
TGI (KM12 colon): > 100 µM
TGI (HOP-62 NSCLC): > 100 µM
TGI (HCT-116 colon): > 100 µM
TGI (HS 578T breast): > 100 µM
TGI (MALME-3M melanoma): > 100 µM
TGI (U251 CNS): > 100 µM
TGI (HOP-92 NSCLC): > 100 µM
TGI (K-562 leukemia): > 100 µM
TGI (OVCAR-5 ovarian): > 100 µM
TGI (A498 renal): > 100 µM
TGI (TK-10 renal): > 100 µM
TGI (MDA-N): > 100 µM
TGI (ACHN renal): > 100 µM
TGI (SK-MEL-2 melanoma): > 100 µM
TGI (OVCAR-4 ovarian): > 100 µM
TGI (SR leukemia): > 100 µM
TGI (SNB-19 CNS): > 100 µM
TGI (SK-MEL-28 melanoma): > 100 µM
TGI (RXF 393 renal): 86 µM
TGI (HT29 colon): > 100 µM
TGI (EKVX NSCLC): 83.5 µM
TGI (NCI-H23 lung): > 100 µM
TGI (SK-OV-3 ovarian): > 100 µM
TGI (SW-620 colon): > 100 µM
TGI (SK-MEL-5 melanoma): 35.9 µM
TGI (SF-268 CNS): > 100 µM
TGI (NCI-H522 lung): 43.3 µM
TGI (IGROV1 ovarian): > 100 µM
TGI (UO-31 renal): > 100 µM
TGI (UACC-62 melanoma): > 100 µM
TGI (OVCAR-8 ovarian): > 100 µM
TGI (HCT-15 colon): > 100 µM
TGI (SN12C renal): > 100 µM
TGI (A549 NSCLC): > 100 µM
TGI (786-0 renal): > 100 µM
TGI (LOX IMVI melanoma): > 100 µM
TGI (MDA-MB-435): > 100 µM
TGI (HCC-2998 colon): > 100 µM
TGI (PC-3 prostate): > 100 µM
TGI (DU-145 prostate): > 100 µM
TGI (CAKI-1 renal): > 100 µM

Cc1nc2ccccc2nc1N1CCCC1
TGI (MCF7 breast): > 100 µM
TGI (UACC-257 melanoma): > 100 µM
TGI (NCI-H226 lung): > 100 µM
TGI (SNB-75 CNS): > 100 µM
TGI (M14 melanoma): > 100 µM
TGI (BT-549 breast): > 100 µM
TGI (T-47D breast): > 100 µM
TGI (MDA-MB-231 breast): > 100 µM
TGI (NCI-H460 lung): > 100 µM
TGI (SF-295 CNS): > 100 µM
TGI (COLO 205 colon): > 100 µM
TGI (NCI/ADR-RES ovarian): > 100 µM
TGI (RPMI-8226 leukemia): > 100 µM
TGI (KM12 colon): > 100 µM
TGI (HOP-62 NSCLC): > 100 µM
TGI (HCT-116 colon): > 100 µM
TGI (HS 578T breast): > 100 µM
TGI (MALME-3M melanoma): > 100 µM
TGI (U251 CNS): > 100 µM
TGI (HOP-92 NSCLC): > 100 µM
TGI (K-562 leukemia): > 100 µM
TGI (OVCAR-5 ovarian): > 100 µM
TGI (A498 renal): > 100 µM
TGI (TK-10 renal): > 100 µM
TGI (MDA-N): > 100 µM
TGI (ACHN renal): > 100 µM
TGI (SK-MEL-2 melanoma): > 100 µM
TGI (OVCAR-4 ovarian): > 100 µM
TGI (SR leukemia): > 100 µM
TGI (SNB-19 CNS): > 100 µM
TGI (SK-MEL-28 melanoma): > 100 µM
TGI (RXF 393 renal): > 100 µM
TGI (HT29 colon): > 100 µM
TGI (EKVX NSCLC): > 100 µM
TGI (NCI-H23 lung): > 100 µM
TGI (SK-OV-3 ovarian): > 100 µM
TGI (SW-620 colon): > 100 µM
TGI (SK-MEL-5 melanoma): > 100 µM
TGI (SF-268 CNS): > 100 µM
TGI (NCI-H522 lung): > 100 µM
TGI (IGROV1 ovarian): > 100 µM
TGI (UACC-62 melanoma): > 100 µM
TGI (OVCAR-8 ovarian): > 100 µM
TGI (HCT-15 colon): > 100 µM
TGI (SN12C renal): > 100 µM
TGI (A549 NSCLC): > 100 µM
TGI (786-0 renal): > 100 µM
TGI (LOX IMVI melanoma): > 100 µM
TGI (MDA-MB-435): > 100 µM
TGI (HCC-2998 colon): > 100 µM
TGI (PC-3 prostate): > 100 µM
TGI (DU-145 prostate): > 100 µM
TGI (CAKI-1 renal): > 100 µM
